{
  "source": "patent US20100041620A1",
  "about": "“METHODS FOR IMPROVING FRONTAL BRAIN BIOENERGETIC METABOLISM” (priority 2008, published 2010)",
  "key": {"[1]": {"system": "anterior cingulate cortex (ACC)", "assay": "31P magnetic resonance spectroscopic imaging (3D-CSI, 4 Tesla) of phosphorus metabolites, anterior cingulate cortex", "assay_type": "in vivo, human", "excerpt": "(§1) ^31P data were collected using a three-dimensional chemical shift imaging (3D-CSI) technique at 4 Tesla in healthy middle-aged individuals. The use of 3D-CSI at high field has several advantages over previous methods: (1) increased spectral dispersion, which allows for increased precision of metabolite quantification; (2) post-processing grid shifting that allows for 3D placement of voxels of interest; and (3) the ability to co-register voxel placement between baseline and post-treatment follow-up. High-energy metabolite peaks quantified in the present study include phosphocreatine (PCr), β-nucleoside triphosphate (NTP, ATP in brain), and inorganic phosphate (Pi). Phospholipid membrane metabolite peaks quantified include anabolites, phosphomonoesters (PME), including phosphoethanolamine (PE) and phosphocholine (PC), and catabolites, phosphodiesters (PDE), including glycerophosphoethanolamine (GPE) and glycerolphosphocholine (GPC). A region of interest approach was used to examine phosphorus metabolite levels in the anterior cingulate cortex (ACC), given the notable age-related decline in frontal brain metabolism and impairment of frontally-mediated cognitive functions. A comparison region placed in the parieto-occipital cortex (POC) was also evaluated. It was hypothesized that oral supplementation with citicoline would improve frontal bioenergetic metabolism via elevations in availability of high-energy phosphates, as well as alteration of membrane phospholipid turnover by providing additional membrane precursors.\n(§2) Subjects included sixteen neurologically and psychiatrically healthy adults (mean age=47.3±5.4 years; 8 females, 8 males). Trained research technicians administered a structured clinical psychiatric interview using the Structured Clinical Interview for DSM-IV (SCID). All subjects were free of Axis I diagnoses, neurological illness, severe medical problems, and psychoactive substance use.\n(§3) Subjects were randomly assigned to receive a six-week supply of either 500 mg (4 males and 4 females) or 2000 mg (4 males and 4 females) of Cognizin® Citicoline (Kyowa Hakko Kogyo Co., Ltd., JAPAN). Subjects were instructed to take one capsule every day (500 mg group) or four capsules every day in a single dose (2000 mg group) for six weeks. […] Magnetic resonance spectroscopy (MRS) was completed on all subjects in two imaging sessions: one prior to beginning treatment (baseline) and one after completing six weeks of treatment.\n(§4) All proton imaging was performed using the proton channel of the dual tuned open face proton-phosphorus TEM whole-head coil from Bioengineering Inc. (Minneapolis, Minn.) operating at a nominal frequency of 170.3 MHz. A 2D gradient-recalled echo imaging sequence (12 seconds duration) was used to acquire a single image in all three spatial dimensions (sagittal, coronal, axial) to quickly determine the patient's position and angle. High-contrast, T1-weighted sagittal, coronal images as well as T1 and T2-weighted transverse images of the entire brain were acquired using a three-dimensional, magnetization-prepared FLASH imaging sequence (3D-MP FLASH), allowing for clear segmentation between grey-matter, white-matter, and CSF, as well as clearly delineating between the different anatomical regions of interest. This approach was used to optimize ^31P-MRSI voxel positioning and volumetric correction in the regions of interest.\n(§5) Phosphorus MRSI was performed using the phosphorus channel of the dual tuned proton-phosphorus TEM whole-head coil from Bioengineering Inc. (Minneapolis, Minn.) operating at 68.9 MHz. Phosphorus MRSI data were recorded using a three-dimensional chemical shift imaging (3D-CSI) sequence (Garraux, Neuroimage 10:149-162, 1999). […]"}, "[2]": {"system": "parieto-occipital cortex (POC)", "assay": "31P magnetic resonance spectroscopic imaging (3D-CSI, 4 Tesla) of phosphorus metabolites, parieto-occipital cortex comparison region", "assay_type": "in vivo, human", "conditions": "6 weeks oral citicoline, doses pooled, mean ± SD", "excerpt": "as §1, §2, §3, §4, §5"}, "[3]": {"conditions": "six weeks of citicoline supplementation, decrease"}, "[4]": {"conditions": "six weeks of citicoline supplementation, increase"}},
  "data": [
    {"smiles": "C[N+](C)(C)CCOP(=O)(O)OP(=O)([O-])OC[C@H]1O[C@@H](n2ccc(N)nc2=O)[C@H](O)[C@@H]1O", "note": "[citicoline, cytidine 5′-diphosphocholine]", "values": [
      {"measurement": "PCr, metabolite ratio relative to the total 31P signal", "setting": "[1]; 6 weeks oral citicoline, 500 and 2000 mg/day groups pooled, mean ± SD, baseline .154 ± .019, p .02", "value": ".162 ± .015"},
      {"measurement": "PCr/Pi", "setting": "[1]; 6 weeks oral citicoline, doses pooled, mean ± SD, baseline 2.17 ± .46, p .03", "value": "2.82 ± 1.04"},
      {"measurement": "PC, metabolite ratio relative to the total 31P signal", "setting": "[1]; 6 weeks oral citicoline, doses pooled, mean ± SD, baseline .026 ± .010, p .02", "value": ".019 ± .008"},
      {"measurement": "GPE, metabolite ratio relative to the total 31P signal", "setting": "[1]; 6 weeks oral citicoline, doses pooled, mean ± SD, baseline .039 ± .010, p .01", "value": ".030 ± .009"},
      {"measurement": "PE, metabolite ratio relative to the total 31P signal", "setting": "[1]; 6 weeks oral citicoline, doses pooled, mean ± SD, baseline .043 ± .015, p .04", "value": ".054 ± .008"},
      {"measurement": "GPC, metabolite ratio relative to the total 31P signal", "setting": "[1]; 6 weeks oral citicoline, doses pooled, mean ± SD, baseline .051 ± .015, ns", "value": ".047 ± .016"},
      {"measurement": "β-NTP, metabolite ratio relative to the total 31P signal", "setting": "[1]; 6 weeks oral citicoline, doses pooled, mean ± SD, baseline .066 ± .012, p .05", "value": ".075 ± .014"},
      {"measurement": "PME, metabolite ratio relative to the total 31P signal", "setting": "[1]; 6 weeks oral citicoline, doses pooled, mean ± SD, baseline .069 ± .016, ns", "value": ".073 ± .012"},
      {"measurement": "Pi, metabolite ratio relative to the total 31P signal", "setting": "[1]; 6 weeks oral citicoline, doses pooled, mean ± SD, baseline .073 ± .012, p .15", "value": ".065 ± .022"},
      {"measurement": "PDE, metabolite ratio relative to the total 31P signal", "setting": "[1]; 6 weeks oral citicoline, doses pooled, mean ± SD, baseline .183 ± .032, p .07", "value": ".154 ± .049"},
      {"measurement": "decreased GPE, change from baseline", "setting": "[1]; [3]", "value": 23, "unit": "%"},
      {"measurement": "decreased PC, change from baseline", "setting": "[1]; [3]", "value": 29, "unit": "%"},
      {"measurement": "increased PCr/Pi, change from baseline", "setting": "[1]; six weeks of citicoline supplementation, doses pooled, increase", "value": 32, "unit": "%"},
      {"measurement": "increased PCr, change from baseline", "setting": "[1]; [4]", "value": 7, "unit": "%"},
      {"measurement": "increased PE, change from baseline", "setting": "[1]; [4]", "value": 26, "unit": "%"},
      {"measurement": "increased β-NTP, change from baseline", "setting": "[1]; [4]", "value": 14, "unit": "%"},
      {"measurement": "Pi, metabolite ratio relative to the total 31P signal", "setting": "[1]; six weeks, 2000 mg/day group, baseline 0.069±0.010, p=0.57", "value": "0.073±0.019"},
      {"measurement": "PCr/Pi ratio", "setting": "[1]; six weeks, 2000 mg/day group, baseline 2.41±0.52, p=0.84", "value": "2.33±0.61"},
      {"measurement": "increased PCr/Pi, change from baseline", "setting": "[1]; six weeks, low dose (500 mg), increase", "value": 66, "unit": "%"},
      {"measurement": "decreased Pi, change from baseline", "setting": "[1]; six weeks, low dose only (500 mg), decrease", "value": 26, "unit": "%"},
      {"measurement": "PCr/Pi", "setting": "[2]; baseline 2.30 ± .34, ns", "value": "2.38 ± .53"},
      {"measurement": "PC, metabolite ratio relative to the total 31P signal", "setting": "[2]; baseline .023 ± .009, ns", "value": ".026 ± .012"},
      {"measurement": "GPE, metabolite ratio relative to the total 31P signal", "setting": "[2]; baseline .034 ± .011, ns", "value": ".032 ± .014"},
      {"measurement": "GPC, metabolite ratio relative to the total 31P signal", "setting": "[2]; baseline .047 ± .017, ns", "value": ".047 ± .010"},
      {"measurement": "β-NTP, metabolite ratio relative to the total 31P signal", "setting": "[2]; baseline .063 ± .009, ns", "value": ".066 ± .010"},
      {"measurement": "PE, metabolite ratio relative to the total 31P signal", "setting": "[2]; baseline .065 ± .009, ns", "value": ".058 ± .010"},
      {"measurement": "Pi, metabolite ratio relative to the total 31P signal", "setting": "[2]; baseline .072 ± .010, ns", "value": ".075 ± .013"},
      {"measurement": "PME, metabolite ratio relative to the total 31P signal", "setting": "[2]; baseline .088 ± .015, ns", "value": ".084 ± .011"},
      {"measurement": "PCr, metabolite ratio relative to the total 31P signal", "setting": "[2]; baseline .164 ± .016, ns", "value": ".173 ± .015"},
      {"measurement": "PDE, metabolite ratio relative to the total 31P signal", "setting": "[2]; baseline .165 ± .029, ns", "value": ".152 ± .030"}
    ]}
  ]
}
